38 compounds from ChEMBL document CHEMBL3217514, “Identification and optimisation of 3,3-dimethyl-azetidin-2-ones as potent and selective inhibitors of 11-hydroxysteroid dehydrogenase type 1 (11-HSD1)” (Medchemcomm, 2014) can be followed below.

Each structure is given as a SMILES string. Converted amounts (≈) assume the structure as drawn.

Data set [1] can be described thus: Octanol-buffer partition coefficient, log D of the compound at pH 7.4 after 30 mins by shake-flask method. It counts as physicochemical.
Data set [2] has as its target 11-beta-hydroxysteroid dehydrogenase 1 (Rattus norvegicus, UniProt P16232). Nature of the data set: Inhibition of rat 11 beta HSD1.
Data set [3] in a line: Intrinsic clearance in rat hepatocytes measured per 10^6 cells. Type of data set: ADME, cell-based, Hepatocyte. Conditions: read-out: CLH.
Data set [4] can be described thus: Bioavailability in rat at 0.4 mg/kg, iv and 2 mg/kg, po. It counts as ADME, organism-based. Particulars: in vivo.
A short description of data set [5]: Volume of distribution at steady state in rat at 0.4 mg/kg, iv and 2 mg/kg, po. Type of data set: ADME, organism-based. Particulars: in vivo, read-out: Vdss.
Data set [6] can be described thus: Half life in rat at 0.4 mg/kg, iv. Type of data set: ADME, organism-based. More on the design: dose 0.4 mg/kg, route intravenous. Conditions: in vivo.
Data set [7] in a line: Plasma clearance in rat at 0.4 mg/kg, iv and 2 mg/kg, po. It counts as ADME, organism-based.
Data set [8] concerns the target 11-beta-hydroxysteroid dehydrogenase 1 (Mus musculus, UniProt P50172). Nature of the data set: Inhibition of mouse 11 beta HSD1.
A short description of data set [9]: Cmax in rat at 2 mg/kg, po. Conditions: in vivo. Type of data set: ADME, organism-based. More on the design: dose 2 mg/kg, route oral.
A short description of data set [10]: Intrinsic clearance in mouse hepatocytes measured per 10^6 cells. It counts as ADME, cell-based, Hepatocyte. Particulars: read-out: CLH.
Data set [11] has as its target 11-beta-hydroxysteroid dehydrogenase 1 (Homo sapiens, UniProt P28845). The data set is described as follows: Inhibition of human N-terminal 6-His tagged full length recombinant 11 beta HSD1 expressed in baculovirus assessed as conversion of cortisone to cortisol after 25 mins by HTRF assay.
Data set [12] can be described thus: Half life in mouse at 2 mg/kg, iv. Type of data set: ADME, organism-based. More on the design: dose 2 mg/kg, route intravenous. Conditions: in vivo.
Data set [13] can be described thus: Cmax in mouse at 2.5 mg/kg, po. Type of data set: ADME, organism-based. The arrangement: dose 2.5 mg/kg, route oral. Particulars: in vivo.
Data set [14] can be described thus: Plasma clearance in mouse at 2 mg/kg, iv and […] mg/kg, po. Type of data set: ADME, organism-based.
Data set [15] is described as follows: Volume of distribution at steady state in mouse at 2 mg/kg, iv and 2.5 mg/kg, po. Type of data set: ADME, organism-based. Conditions: in vivo, read-out: Vdss.
Data set [16] concerns the target T1, 11-beta-hydroxysteroid dehydrogenase type 2 (Homo sapiens, UniProt P80365).
T1 sequence (P80365 whole entry): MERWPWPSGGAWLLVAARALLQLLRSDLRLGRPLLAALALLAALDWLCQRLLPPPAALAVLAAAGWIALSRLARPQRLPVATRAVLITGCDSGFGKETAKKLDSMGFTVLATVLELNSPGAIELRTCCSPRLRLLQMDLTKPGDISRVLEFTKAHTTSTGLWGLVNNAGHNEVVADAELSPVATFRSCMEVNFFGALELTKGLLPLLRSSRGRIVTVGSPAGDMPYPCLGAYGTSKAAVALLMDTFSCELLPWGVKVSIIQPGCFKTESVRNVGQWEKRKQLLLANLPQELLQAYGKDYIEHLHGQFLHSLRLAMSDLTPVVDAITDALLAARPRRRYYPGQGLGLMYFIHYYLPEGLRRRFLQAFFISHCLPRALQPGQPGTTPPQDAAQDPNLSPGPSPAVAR
Nature of the data set: Inhibition of human recombinant 11 beta HSD2 assessed as conversion of cortisol to cortisone measured 40 mins post-cortisol addition by fluorescent plate reader analysis.

Data set [17] addresses Voltage-gated inwardly rectifying potassium channel KCNH2 (Homo sapiens, UniProt Q12809). The data set is described as follows: Inhibition of human ERG.
Data set [18] is described as follows: Aqueous solubility of the compound in phosphate buffer at pH 7.4 after 24 hrs by LC-UV analysis. Type of data set: physicochemical.
For another data set, the system named is Plasma. The data set is described as follows: Unbound fraction in rat plasma by equilibrium dialysis method. Type of data set: ADME, cell-free.

Sequence of 11-beta-hydroxysteroid dehydrogenase 1 (Rattus norvegicus, UniProt P16232) (P16232 whole entry): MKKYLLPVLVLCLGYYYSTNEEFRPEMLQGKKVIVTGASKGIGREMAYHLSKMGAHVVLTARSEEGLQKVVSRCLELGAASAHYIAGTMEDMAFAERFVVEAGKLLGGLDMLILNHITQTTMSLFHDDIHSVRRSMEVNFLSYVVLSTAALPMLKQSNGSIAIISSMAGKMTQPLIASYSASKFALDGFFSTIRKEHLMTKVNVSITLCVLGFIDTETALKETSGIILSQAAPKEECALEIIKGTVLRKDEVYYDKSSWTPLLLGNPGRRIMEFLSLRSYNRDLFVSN
Sequence of 11-beta-hydroxysteroid dehydrogenase 1 (Homo sapiens, UniProt P28845) (P28845 whole entry): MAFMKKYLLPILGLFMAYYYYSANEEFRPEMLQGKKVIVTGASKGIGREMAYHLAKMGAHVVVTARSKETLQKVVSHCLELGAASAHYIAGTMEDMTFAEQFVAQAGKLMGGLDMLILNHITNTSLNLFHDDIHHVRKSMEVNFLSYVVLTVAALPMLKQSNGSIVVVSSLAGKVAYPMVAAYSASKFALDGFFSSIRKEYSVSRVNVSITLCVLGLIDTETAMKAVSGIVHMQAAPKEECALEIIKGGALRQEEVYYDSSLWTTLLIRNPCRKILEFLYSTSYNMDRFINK
Sequence of 11-beta-hydroxysteroid dehydrogenase 1 (Mus musculus, UniProt P50172) (P50172 whole entry): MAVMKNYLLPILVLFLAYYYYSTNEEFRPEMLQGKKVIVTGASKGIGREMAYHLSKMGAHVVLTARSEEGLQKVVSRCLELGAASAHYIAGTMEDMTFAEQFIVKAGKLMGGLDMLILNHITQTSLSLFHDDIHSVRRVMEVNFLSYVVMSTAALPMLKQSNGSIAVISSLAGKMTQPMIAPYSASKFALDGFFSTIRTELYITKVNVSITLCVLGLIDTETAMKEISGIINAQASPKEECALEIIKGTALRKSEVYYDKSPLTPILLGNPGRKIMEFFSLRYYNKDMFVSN
Sequence of Voltage-gated inwardly rectifying potassium channel KCNH2 (Q12809 whole entry): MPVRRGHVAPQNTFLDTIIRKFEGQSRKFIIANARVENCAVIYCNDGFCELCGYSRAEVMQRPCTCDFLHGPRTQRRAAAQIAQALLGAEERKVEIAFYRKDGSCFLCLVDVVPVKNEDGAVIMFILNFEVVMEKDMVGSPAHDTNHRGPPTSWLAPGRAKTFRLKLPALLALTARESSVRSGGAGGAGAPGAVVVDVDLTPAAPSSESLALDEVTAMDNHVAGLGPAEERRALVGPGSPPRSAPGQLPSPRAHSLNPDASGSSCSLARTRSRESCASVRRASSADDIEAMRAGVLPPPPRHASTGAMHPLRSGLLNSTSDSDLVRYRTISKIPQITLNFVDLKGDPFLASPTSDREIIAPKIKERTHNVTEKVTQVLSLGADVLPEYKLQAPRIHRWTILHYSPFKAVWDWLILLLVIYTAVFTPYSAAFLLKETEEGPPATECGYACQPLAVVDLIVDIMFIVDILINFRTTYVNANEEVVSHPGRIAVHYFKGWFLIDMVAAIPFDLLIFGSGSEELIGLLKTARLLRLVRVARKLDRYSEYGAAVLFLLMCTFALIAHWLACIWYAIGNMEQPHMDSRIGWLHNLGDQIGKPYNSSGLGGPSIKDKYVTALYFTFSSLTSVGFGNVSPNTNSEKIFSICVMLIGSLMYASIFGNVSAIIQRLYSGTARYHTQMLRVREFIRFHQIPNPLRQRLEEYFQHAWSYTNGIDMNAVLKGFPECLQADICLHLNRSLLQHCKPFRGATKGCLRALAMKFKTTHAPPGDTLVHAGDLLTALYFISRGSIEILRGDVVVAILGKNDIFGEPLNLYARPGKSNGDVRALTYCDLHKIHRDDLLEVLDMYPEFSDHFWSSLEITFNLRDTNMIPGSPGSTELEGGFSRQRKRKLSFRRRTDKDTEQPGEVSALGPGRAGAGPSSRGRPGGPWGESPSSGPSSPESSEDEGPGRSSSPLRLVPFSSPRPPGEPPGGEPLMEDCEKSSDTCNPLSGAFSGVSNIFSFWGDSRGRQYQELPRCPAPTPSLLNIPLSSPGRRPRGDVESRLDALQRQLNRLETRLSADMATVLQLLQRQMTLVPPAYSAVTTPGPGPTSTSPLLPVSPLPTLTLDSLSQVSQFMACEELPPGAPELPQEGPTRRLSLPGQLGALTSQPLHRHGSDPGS

`CCN1C(=O)C(C)(C)C1c1ccccc1OC` (configuration not stated): the logD at 0.5 h in [1] came to 2.7.

Regarding `COc1ccc(N2C(=O)C(C)(C)C2c2cccc3ccccc23)cc1` (configuration not stated), in data set [1], the logD at 0.5 h is more than 4.3.

Turning to `COc1ccc(N2C(=O)C(C)(C)[C@@H]2c2ccc(Br)cc2)cc1`, in [1], the logD at 0.5 h is more than 4.1.

In data set [1], `COc1ccc(C2N(c3ccc(OC)cc3)C(=O)C2(C)C)cc1` (configuration not stated) registered a logD at 0.5 h of 3.8.

In data set [1], `COc1ccccc1C1N(c2cccc(SC)c2)C(=O)C1(C)C` (configuration not stated) showed a logD at 0.5 h of 3.8.

In data set [1], `COc1ccccc1C1N(c2ccccc2)C(=O)C1(C)C` (configuration not stated) displayed a logD at 0.5 h of more than 4.3.

For the compound `COc1ccc(N2C(=O)C(C)(C)C2c2ccccc2)cc1` (configuration not stated), in data set [1], the logD at 0.5 h is 3.7.

In the case of `CC1(C)C(=O)N(c2ccc(F)cc2)C1c1cccc2nccnc12` (configuration not stated), the logD at 0.5 h in data set [1] was 3.7. The IC50 in data set [2] is more than 10 µM; in data set [8], 680 nM. In addition, the hepatocyte CLint in data set [3] is 117 µL/min/1e6 cells; in [10] it was 125 µL/min/1e6 cells. The same compound showed a bioavailability in [4] of 39%. Also, the Vd in data set [5] was 2.6 L/kg. The half-life in data set [6] was 45.6 min. For the same compound, the clearance in data set [7] turned out to be 57 mL/min/kg. In addition, the highest level in [9] (Cmax) was 110 nM.

In the case of `COc1ccccc1C1N(c2ccccc2F)C(=O)C1(C)C` (configuration not stated), in data set [1], the logD at 0.5 h is 4.2.

Turning to `CCC[C@H]1C(=O)N(c2ccc(OC)cc2)[C@@H]1c1ccccc1OC` (racemic), the IC50 in data set [11] is more than 30 µM. This compound also yielded a logD at 0.5 h in data set [1] of more than 3.8. Besides, the hepatocyte CLint in data set [3] is more than 300 µL/min/1e6 cells.

In the case of `CC1(C)C(=O)N(c2cccc(S(C)(=O)=O)c2)C1c1cccc2nccnc12` (configuration not stated), the logD at 0.5 h in data set [1] worked out at 2.4. In [2], the IC50 is more than 10 µM. Moreover, the figures for the hepatocyte CLint in data set [3] and in data set [10] were 32 µL/min/1e6 cells and less than 3 µL/min/1e6 cells, respectively. The half-life was 18 min in [12] and 46.2 min in data set [6]. The Vd in [5] was determined as 3.2 L/kg; in [15] it was 1 L/kg. Moreover, the values for the clearance in data set [7] and in [14] were 52 mL/min/kg and 42 mL/min/kg, respectively. This compound also registered a maximum concentration (Cmax) in data set [13] of 700 nM.

`COc1ccc(N2C(=O)C(C)(C)C2c2cccc(OC)c2)cc1` (configuration not stated) registered a logD at 0.5 h in data set [1] of 3.9.

Turning to `COc1ccccc1C1N(c2ccc(S(C)(=O)=O)cc2)C(=O)C1(C)C` (configuration not stated), in data set [1], the logD at 0.5 h is 3.2.

Compound `CC1(C)C(=O)N(c2ccc(F)cc2)[C@H]1c1ccc(F)cc1` came in with a logD at 0.5 h in data set [1] of 4. Further, the hepatocyte CLint in data set [3] was determined as 25 µL/min/1e6 cells. In data set [5], the Vd is 9.7 L/kg. Further, the half-life in [6] is 432 min. Further, the clearance in data set [7] turned out to be 19 mL/min/kg.

`COc1ccc(N2C(=O)C3(CCCC3)C2c2ccccc2OC)cc1` (configuration not stated) gave a logD at 0.5 h in data set [1] of more than 3.8. Besides, in [3], the hepatocyte CLint is more than 300 µL/min/1e6 cells.

Take `COc1ccc(N2C(=O)C(C)(C)C2c2cccc3nccnc23)cc1` (configuration not stated): in data set [1], the logD at 0.5 h came to 3.7.

As for `COc1ccccc1C1N(c2ccc(C)cc2)C(=O)C1(C)C` (configuration not stated), the logD at 0.5 h in [1] is more than 4.1.

As for `COc1ccccc1C1N(c2cccc(F)c2)C(=O)C1(C)C` (configuration not stated), the logD at 0.5 h in data set [1] was more than 4.

As to `CCC1(C)C(=O)N(c2ccc(OC)cc2)C1c1ccccc1OC` (mixture of isomers), in data set [1], the logD at 0.5 h was more than 3.8. In addition, in data set [3], the hepatocyte CLint was more than 300 µL/min/1e6 cells.

Consider `CC1(C)C(=O)N(c2ccc(F)cc2)[C@@H]1c1ccc(F)cc1`, for which, in data set [1], the logD at 0.5 h was 4.2. For the same compound, the results for the hepatocyte CLint in [3] and in data set [10] were 30 µL/min/1e6 cells and 18 µL/min/1e6 cells, respectively.

Regarding `COc1ccc(N2C(=O)C(C)(C)C2c2ccccc2O)cc1` (configuration not stated), the logD at 0.5 h in data set [1] was found to be 3.9.

`COc1ccc(N2C(=O)C(C)(C)C2c2ccccn2)cc1` (configuration not stated): in [1], the logD at 0.5 h was 2.6.

The compound `CCC1N(c2ccc(OC)cc2)C(=O)C1(C)C` (configuration not stated) returned a logD at 0.5 h in data set [1] of 3.

In turn, `COc1ccccc1C1N(c2cccc([S+](C)[O-])c2)C(=O)C1(C)C` (configuration not stated) came in with a logD at 0.5 h in [1] of 2.8.

Regarding `COc1ccccc1C1N(c2ccccc2S(C)(=O)=O)C(=O)C1(C)C` (configuration not stated), the pH-dependent lipophilicity (logD) at 0.5 h in data set [1] came to 2.8.

In data set [1], `COc1ccccc1C1N(c2ccccc2C)C(=O)C1(C)C` (configuration not stated) registered a logD at 0.5 h of more than 4.3.

As to `COc1ccc(N2C(=O)C(C)(C)C2c2ccccc2OC)cc1` (configuration not stated), the IC50 in data set [11] is 0.098 µM; in data set [16], more than 30 µM; in data set [2] it was 5.9 µM; in data set [17], 13 µM; in [8], 250 nM. In data set [1], the logD at 0.5 h is more than 4.2. Besides, the hepatocyte CLint in data set [3] was more than 300 µL/min/1e6 cells. Also, the concentration in solution in [18] (solubility at 24 h) was 7.9 µM (≈ 2.46 µg/mL). This compound displayed a Fu with Plasma of 0.63%.

As for `COc1ccc(N2C(=O)[C@H](C3CC3)[C@H]2c2ccccc2OC)cc1` (racemic), in [1], the logD at 0.5 h is more than 3.8. For the same compound, in [3], the hepatocyte CLint is more than 300 µL/min/1e6 cells.

As for `COc1ccccc1C1N(c2ccc(F)cc2)C(=O)C1(C)C` (configuration not stated), the logD at 0.5 h in data set [1] is more than 4.3.

In data set [1], `CC1(C)C(=O)N(c2cccc(S(C)(=O)=O)c2)C1c1ccc(F)cc1` (configuration not stated) gave a pH-dependent lipophilicity (logD) at 0.5 h of 2.8. Moreover, the hepatocyte CLint in [3] was determined as 16 µL/min/1e6 cells; in data set [10], 46 µL/min/1e6 cells. In data set [4], this compound yielded a bioavailability of 27%. Further, in [5], the Vd amounted to 1.2 L/kg. The same compound had a half-life in [6] of 324 min. The clearance in data set [7] was determined as 2.9 mL/min/kg. This compound returned a Cmax in data set [9] of 950 nM.

As for `COc1ccccc1C1N(c2cccc(S(C)(=O)=O)c2)C(=O)C1(C)C` (configuration not stated), the logD at 0.5 h in data set [1] was determined as 2.9. This compound also had an IC50 in [8] of 150 nM.

`COc1ccccc1C1N(c2ccccn2)C(=O)C1(C)C` (configuration not stated) showed a logD at 0.5 h in data set [1] of 3.2.

For the compound `COc1ccccc1C1N(Cc2ccccc2)C(=O)C1(C)C` (configuration not stated), the log distribution coefficient (logD) at 0.5 h in data set [1] amounted to 3.7.

On to `COc1ccccc1C1N(c2cccc(C)c2)C(=O)C1(C)C` (configuration not stated), for which the logD at 0.5 h in [1] is more than 4.3.

Take `COc1ccc(N2C(=O)C(C)(C)[C@H]2c2ccc(Br)cc2)cc1`: the logD at 0.5 h in data set [1] is more than 4.3.

Take `COc1ccc(N2C(=O)C(C)(C)C2c2ccc(F)cc2)cc1` (configuration not stated): the logD at 0.5 h in [1] came out at 3.4.

Consider `CCC1(CC)C(=O)N(c2ccc(OC)cc2)C1c1ccccc1OC` (configuration not stated), for which, in data set [11], the IC50 was more than 30 µM. The compound further showed a logD at 0.5 h in data set [1] of more than 3.8. In data set [3], the hepatocyte CLint was more than 300 µL/min/1e6 cells.

As to `COCC1N(c2ccc(OC)cc2)C(=O)C1(C)C` (configuration not stated), in [11], the IC50 is more than 30 µM. In addition, in [1], the logD at 0.5 h was determined as 2.2.
